Laboratory results taken from US5700640A, “Inducers of gamma globin gene expression and screening assays therefor” (priority 1994, dated 1997).

What was measured:
[1] = system: gamma globin gene expression (gamma3'PE reporter) in K562 cells; assay: gamma globin promoter-luciferase reporter assay in stably transfected gamma3'PE K562 cells
Experimental: The gamma globin 5' promoter and 3' enhancer fragments, alone or in combination with each other or another fragment, were inserted into restriction endonuclease sites flanking the coding sequences of the luciferase gene in pGL2 using standard recombinant DNA techniques (pGL2 was obtained commercially from Promega Biotech). Constructs were prepared which contained: 1) the gamma globin promoter alone upstream of the luciferase gene (gamma); 2) the gamma globin promoter upstream of the luciferase gene and the gamma globin 3' enhancer downstream of the luciferase gene (gamma3'PE); 3) the gamma globin promoter upstream of the luciferase gene and the SV40 enhancer downstream of the luciferase gene (gammaSV40); 4) the beta globin promoter upstream of the luciferase gene and the gamma globin 3' enhancer downstream of the luciferase gene Coeta3'PE); and 5) hypersensitive sites 2 and 3 G-IS2 and HS3) of the 5' globin enhancer upstream of the gamma globin promoter upstream of the luciferase gene and the gamma globin 3' enhancer downstream of the luciferase gene (HS2/3gamma3'PE). These constructs are illustrated schematically in FIG. 2.
The gamma globin-luciferase reporter gene constructs described in Example 1 were introduced into a human erythroleukemia cell line K562 (ATCC No. CCL 243). To create stable transfectants, K562 cells (5×10^6) in log phase were suspended in 400 μl HEPES buffered saline and then combined with 33.5 μg salmon testes DNA (Sigma), 1.5 μg neo plasmid (pPMT) and 15 μg reporter gene plasmid supercoiled that had been co-precipitated and suspended in 400 μl HEPES buffered saline. The DNA-cell mixture was electroporated at settings of 0.25 KV and 960 μFD using a Gene Pulser (BioRad Inc.) electropotation apparatus.
The cells were allowed to recover 10 minutes at room temperature, then added to 10 ml complete RPMI cell culture medium. Cell debris was removed by centrifugation at 1000 rpm for 5 minutes. The live cells were suspended in 20 ml RPMI in 2×10 cm dishes and grown in non-selective media for 48 hours. Stably transfected cells were then selected by growing the cells in media containing 300 μg/ml G418 for about one month. During this time the cells were split 1:5 every 3 to 4 days. Once the lines were stable, they were carried in 100 μg/ml G418. The cell lines were designated according to the reporter gene construct that was introduced into the cell line. For example, a cell line carrying the gamma'3PE construct was designated gamma3'PE. Transient transfections were carried out similarly except that the neo plasmid was omitted from the electroporation solution and the cells were not subjected to G418 selection.
K562 host cells carrying gamma globin-reporter gene constructs were used to lo screen compounds for their ability to induce globin gene expression, as measured by increased reporter gene activity in the host cells upon treatment with the compound. The host cells described in Example 2 were grown to log phase cells and plated at a density of 2×10^5 /ml in RPMI media without G418. After 24 hours, compounds to be assayed for their ability to induce globin gene expression were dissolved in RPMI media at a concentration of 5 mM and added to the K562 stable transfectants. Mock-treated stably transfected K562 cells served as a negative control. The cells were incubated with the test compounds at 37° C. for various time periods (e.g., 24, 50, 74 and 122 hours).
After induction with the test compounds, the cells were harvested, lysed and assayed for reporter gene activity (i.e., luciferase activity) as follows. Cells were collected, washed once with PBS and lysed in 200 μl Cell Culture Lysis 1 X Reagent (Promega Luciferase Assay System) consisting of 25 mM Tris-Phosphate pH 7.8; 2 mM DTT; 2 mM 1,2-diaminocyclohexane-N,N,N,N-tetraacetic acid; 10% glycerol; 1% Triton X-100.

gamma globin mRNA = assay: Northern hybridization of gamma globin mRNA in treated K562 cells; format: cell-based, human
Experimental: (§1) Total RNA was prepared by the method of McDonald as described in Sambrook et al., (1989) Molecular Cloning: A Laboratory Manual, 2nd Edition, Cold Spring Harbor Laboratory Press. 10 μg total cellular RNA was electrophoresed through agarose gels containing 3.3% formaldehyde. The electrophoresed RNA was then transferred to nitrocellulose filters by standard methods. Each sample was hybridized to specific probes for gamma globin mRNA, mRNA encoding the erythroid specific transcription factor GATA-1 and 28S ribosomal RNA (which was used for standardization). The gamma globin and GATA-1 probes were cDNA probes, which were labeled with ^32 p by random priming reactions (Promega Biotech Inc.). The 28S ribosomal RNA probe was an oligonucleotide having the sequence 5' […] 3' (SEQ ID NO: 3), which was labeled by 5' end labeling using T4 polynucleotide kinase (New England Biolabs). Nucleotide probes were hybridized to the RNA nitrocellulose filters according to standard techniques. After hybridization, radioactive signals on the nitrocellulose filters were directly quantified using a BioRad GS-250 Molecular Imager. mRNA hybridization intensities were normalized to the amount of 28S ribosomal RNA present for each sample.

GATA-1 mRNA = assay: Northern hybridization of GATA-1 mRNA in treated K562 cells; format: cell-based, human
Experimental: as §1

[2] = system: gamma globin gene expression; conditions: cited from earlier work
[3] = Blau et al. 1993; cited from earlier work
[4] = normalized to 28S ribosomal RNA, K562 cells, 5 mM, 96 hours

CCCC(=O)O [BA, butyric acid]
induction of gamma-globin reporter gene expression over time course (FIG. 3) ([1]; 5 mM, 24-122 hr, normalized to viable cells): initially a strong inducer of gamma-globin gene expression | level of induction by the conclusion of the time course (FIG. 3) ([1]; 5 mM, normalized to viable cells): dropped below the level of uninduced cells by the conclusion of the time course | fold induction at 5000 µM ([1]; Homo sapiens, K562, 72 h, read-out: fold induction of reporter gene activity (FIG. 6)): ~2 | fold induction at 5000 µM (gamma globin mRNA; Homo sapiens, K562, 96 h, read-out: Fold Induction, gamma globin RNA): 1.3 | Raw Value, gamma globin RNA (gamma globin mRNA; K562 cells, 5 mM, 96 hours): 3.58 × 10^6 | Normalized Value, gamma globin RNA (gamma globin mRNA; [4]): 9.4 × 10^5 | fold induction at 5000 µM (GATA-1 mRNA; Homo sapiens, K562, 96 h, read-out: Fold Induction, GATA-1 RNA): 1 | Raw Value, GATA-1 RNA (GATA-1 mRNA; K562 cells, 5 mM, 96 hours): 2.23 × 10^5 | Normalized Value, GATA-1 RNA (GATA-1 mRNA; [4]): 5.8 × 10^4 | effect on gamma globin gene expression ([2]; in vitro and in vivo): increase gamma globin gene expression in vitro and in vivo | effect on fetal to adult hemoglobin switch ([2]; in vivo): delay the fetal to adult hemoglobin switch in vivo | toxicity of high dosages [3]: associated with toxicity, in particular neurologic toxicity
